Results published in article PMC8111499, “GW117: A novel serotonin (5‐HT2C) receptor antagonist and melatonin (MT1/MT2) receptor agonist with potential antidepressant‐like activity in rodents” (CNS Neuroscience & Therapeutics, 2021).

What was measured:
MT2 receptor = target: T1, MT2 receptor (Homo sapiens, UniProt P49286); test: [35S]‐GTPγS binding assay, MT2; type: biochemical
T1 construct: purchased Perkin‐Elmer ES‐621
T1 sequence (P49286 1-362): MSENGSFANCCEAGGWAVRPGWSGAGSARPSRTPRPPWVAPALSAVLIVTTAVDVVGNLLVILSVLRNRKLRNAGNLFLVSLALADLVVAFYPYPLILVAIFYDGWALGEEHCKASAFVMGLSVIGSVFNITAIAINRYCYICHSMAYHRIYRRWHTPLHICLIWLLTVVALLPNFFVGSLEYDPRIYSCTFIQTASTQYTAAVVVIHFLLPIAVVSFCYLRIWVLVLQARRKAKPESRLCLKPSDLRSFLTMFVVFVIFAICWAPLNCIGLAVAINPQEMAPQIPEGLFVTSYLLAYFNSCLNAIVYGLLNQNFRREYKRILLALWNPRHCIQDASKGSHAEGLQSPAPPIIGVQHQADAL
Experimental: This experiment was mentioned earlier. ^27 In short, HEK293 cell membrane stably expressing human 5‐HT2C receptors or rat hippocampal tissue membrane or MT1/MT2 receptors was re‐suspended in buffer (50 mmol/L Tris, 100 mmol/L NaCl, 5 mmol/L MgCl2·6H2O, 0.1 mmol/L EDTA‐Na2·6H2O, 0.2 mmol/L EGTA, pH 7.4) and incubated with the test compound (100 μM GDP, 0.2 nM [^35S]‐GTP, or [^3H]PIP) for 60 min at 28℃. At the end of the experiment, Whatman GF/C filters pre‐soaked with distilled water were used for rapid filtration followed by washing with 5 ml of ice‐cold Tris buffer. Determination of non‐specific binding in the presence of GTPγS and radioactivity was measured by liquid scintillation counting. Calculation of the concentration produces a half‐maximal effect (EC50) and the maximal increase above the baseline value.

CUS rats [1] = test: Open field test in chronic unpredictable stress (CUS) rats; type: in vivo; settings: CUS rats, 5, 10, 20, 40 mg/kg p.o., 4‐week stress, vs. CUS‐vehicle
Experimental: (§1) In order to further examine the antidepressant effects of GW117, chronic unpredictable stress (CUS) model was utilized; the methods were as described before. ^29 , ^31 After 1 week of training, rats underwent sucrose training of 48 h. After training, a sucrose baseline test was performed. […] Gastric gavage was given 1 h before the stress (08:00–09:00). Except for the non‐stressed group, all rats were stimulated by a series of stressors. stress methods included the following: fast on food and water (24 h), moisture cage (150 g sawdust bedding in 200 ml water), overnight illumination, low‐intensity strobe illumination (100 flashes/min), forced swimming (5 min at 10℃), white noise (110 dB), tail pinch (1 cm from tail root, 6 min), 45℃ cage tilt, and restraint (1–2 h). Stressors need to be used continuously and randomly. Non‐stressed rats received free food and water, but were required to fast for 14 h before sucrose preference test. After 4 weeks of stress, the sucrose preference test (SPT) (on day 25), open field test (OFT) (on day 28), and novelty‐suppressed feeding (NSF) test (on day 29) were carried out.
The OFT device was a chamber (diameter, 122 cm; height, 45 cm) that was grouped equally into 16 sections. 24 h after the last administration, rats were put into the center of the chamber and the numbers of crossings and readings were recorded in 5 min.

rats = test: Forced swimming test in rats; type: in vivo, Sprague Dawley (SD) rats; settings: single dose p.o., 10, 20, or 40 mg/kg, vs. vehicle
Experimental: The forced swimming test (FST) was conducted as described earlier. ^30 Eighty naive rats were randomized into eight treatment groups (n = 9‐12/group). All rats received a single drug administration (p.o.). The procedure consisted of two sessions, to be specific, a pre‐test session and a test session. A cylindrical container (diameter, 20 cm; height, 40 cm; including 30 cm of water and kept at 25℃) was used. During the pre‐test phase, rats were required to perform forced swimming for 15 min. The test session was performed 24 h later, put the rats in the same cylindrical container for 5 min and immobility duration over 5 min recorded. […] Rats were considered immobile when they entered a floating posture, specifically, immobile, passive, and with their heads above water.

CUS rats [2] = test: Sucrose preference test in CUS rats; type: in vivo; settings: chronic, 5, 10, 20, and 40 mg/kg, vs. CUS‐vehicle
Experimental: as §1
The SPT was performed as previously reported. ^32 Rats were trained to administer sucrose water solution after 48 h fasting and water deprivation. […] Sucrose and water intake were measured, and sucrose preference was calculated: SP =sucrose intake ×100%/ (sucrose intake +water intake). […]

[3] = previous study; cited from earlier work
mice [4] = test: Tail suspension test in mice; type: in vivo, ICR mice
Experimental: The tail suspension test (TST) was conducted as described earlier. ^28 , ^29 Eighty naive mice were randomly divided into eight treatment groups (n = 10/group). All mice received a single dose of the drug (p.o.). After 60 min of gavage administration, mice were suspended from the top of the apparatus (25 × 25 × 35 cm) using tape about 1 cm from the tail tip. The duration of immobility was recorded in the last 4 min for a total of 6 min. When mice are passively suspended immobile, they are judged to be stationary.

mice [5] = test: Locomotor activity in mice; type: in vivo, ICR mice; settings: for Locomotor activity, Crossing number / Locomotor activity, Rearing number: Mice, mean ± S.E.M.
Experimental: In order to confirm whether GW117 has an antidepressant activity, we used spontaneous activities in mice and rats to determine whether GW117 affects the central system. 64 ICR mice were randomly allocation to five therapy groups ([…]): control group, 5 mg/kg GW117, 10 mg/kg GW117, 20 mg/kg GW117, and 40 mg/kg GW117. All rats and mice received one administration (p.o.). After sixty minutes of gavage administration, each mouse or rat was located in the corner of an open field chamber (36 × 29 × 23 cm for mice; 76 × 76 × 46 cm for rats) to adapt to 5 min. The numbers of crossings and rearings were recorded during the subsequent 5 min.

character of effect on MT2 receptor (MT2 receptor; [35S]‐GTPγS binding): full agonist
Emax (MT2 receptor; [35S]‐GTPγS binding, read-out: maximal increase over basal binding (% Emax), MT2 receptor): 103 ± 4.56%
EC50 (MT2 receptor; read-out: EC50 of stimulation of specific [35S]‐GTPγS binding, MT2 receptor): 1.54 nM
Compound: [2H]C([2H])([2H])Oc1cc2c(CCNC(C)=O)cccc2cc1Cl [GW117]
number of rearings and crossings in open field (CUS rats [1]): markedly add to the number of rearings and crossings
immobility time in FST (rats): markedly reduced the immobility time
sucrose preference (CUS rats [2]): markedly increased sucrose preference
toxic effects compared with agomelatine [3]: lower toxic effects
immobility time in TST (mice [4]; acute, p.o., 20 and 40 mg/kg, vs. vehicle): markedly reduced the immobility time
minimal effective dose in TST (mice [4]; immobility time): 20 mg/kg
Locomotor activity, Crossing number (mice [5]; 5 mg/kg p.o.): 86.8 ± 4.4
Locomotor activity, Rearing number (mice [5]; 5 mg/kg p.o.): 22.7 ± 1.8
Locomotor activity, Crossing number (mice [5]; 10 mg/kg p.o.): 80.1 ± 4.8
Locomotor activity, Rearing number (mice [5]; 10 mg/kg p.o.): 22.6 ± 2.1
Locomotor activity, Rearing number (mice [5]; 20 mg/kg p.o.): 20.7 ± 1.5
Locomotor activity, Crossing number (mice [5]; 40 mg/kg p.o.): 86.3 ± 4.4
Locomotor activity, Rearing number (mice [5]; 40 mg/kg p.o.): 21.3 ± 1.4
effect on number of crossings and rearings in the spontaneous activity test (mice [5]; mice, 5, 10, 20, or 40 mg/kg by gavage): had no effect
